{"source": "patent US20100136537A1", "about": "“PHOTORECEPTOR PRECURSOR CELLS” (THE REGENTS OF THE UNIVERSITY OF MICHIGAN, priority 2006, published 2010)", "key": {"[1]": {"tested_on": "photoreceptors", "experiment": "MNU-induced photoreceptor degeneration in adult C57Bl/6 mice (TUNEL, immunostaining, ERG)", "type": "in vivo, mouse", "protocol": "Preparation of Donor Cells and Recipients. Donor cells were prepared from P0-P2 retinas of the neural retina leucine zipper (Nrl)-GFP transgenic mice (See Example 1). Nrl is a basic motif-leucine zipper transcription factor that is preferentially expressed in rod photoreceptors and required for rod differentiation (See, e.g., Swaroop et al., Proc Natl Acad Sci USA. 1992; 89:266-270; and Mears et al., Nat Genet. 2001; 29:447-452). The Nrl promoter directed expression of enhanced green fluorescent protein (EGFP) specifically to new-born rod precursors and mature rods in the Nrl-GFP transgenic mouse. Eyes were enucleated, and the neural retinas dissected and dissociated with a Papain-Protease-DNase solution. N-methyl-N-nitrosourea (MNU; Sigma, St. Louis, Mo.), an alkylating agent that induces photoreceptor degeneration by forming 7-methyldeoxyguanosine DNA adducts in the nuclei of photoreceptors, was administered at a dose of 60 mg/kg to adult C57B1/6 mice by intraperitoneal injection 7 days before transplantation (See, e.g., Doonan et al., J Neurosci. 2003; 23:5723-5731; Ogino et al., Toxicol Pathol. 1993; 21:21-25; Yuge et al., In Vivo. 1996; 10:483-488).\nTissue Processing. Two or four weeks after surgery, the animals were perfused transcardially with 4% paraformaldehyde (Merck, Darmstadt, Germany) in 0.1 M phosphate buffer after sedation with ketamine (15 mg/kg). Eyes were removed and immersion fixed with 4% paraformaldehyde at 4° C. overnight and then in 25% sucrose-PBS to cryoprotect. The specimens were embedded in an optimal cutting temperature compound (Miles, Elkhart, Ind.) and consecutive 12-μm frozen sections were sliced on a cryostat.\nImmunofluorescence. […]\nElectrophysiology. […] Animals were placed on a regulated heating pad under dim red illumination and electroretinograms (ERGs) were recorded with a gold loop electrode placed on the corneal surface maintained with 3% methylcellulose gel. […] The amplitude of the a-wave was measured from the prestimulus baseline to the a-wave trough. […]"}, "[2]": {"tested_on": "photoreceptors", "details": "MNU 60 mg/kg i.p.; cited from earlier work"}, "[3]": {"tested_on": "NRL", "experiment": "NRL expression in serum-starved Y79 cells (immunoblot, Northern blot)", "type": "cell-based, human", "details": "serum-starved Y79 cells, 10 μM RA", "protocol": "Cell Culture. Y79 human retinoblastoma cells (ATCC HTB 18) and HEK293 (ATCC CRL-1573) were maintained in RPMI 1640 and Dulbecco's modified Eagle's medium, respectively, under standard conditions with 15% (v/v) fetal bovine serum (FBS), penicillin G (100 units/ml), and streptomycin (100 μg/ml) at 37° C. and 5% CO2. For serum starvation and RA treatment experiments, Y79 cells (5×10^4) were cultured in the presence or absence of the serum (same batch of serum was used in all the experiments), at RA, 9-cis-RA, cycloheximide (CHX), and 4-(E-2-(5,6,7,8-tetrahydro-5,5,8,8-tetramethyl-2-naphthalenl)-1-propenyl) benzoic acid (TTNPB) at indicated concentrations. Me2SO or ethanol was added to Y79 cells in lieu of the soluble factors as negative control.\nFor protein synthesis inhibition experiments, Y79 cells were serum-starved for 24 h, and then simultaneously treated with RA and CHX for 8 or 24 h. NRL expression was analyzed by immunoblotting. In another set of experiments, serum-starved Y79 cells were first incubated with RA alone for 8 or 24 h and then CHX was added. Cell extracts were then analyzed 24 h later for examining NRL expression by immunoblotting.\n(§1) Protein Expression Analysis."}, "[4]": {"tested_on": "NRL", "experiment": "NRL expression in newborn rat retinal cell cultures (immunoblot)", "type": "cell-based", "protocol": "Primary cultures of new-born rat retinal cells and enriched adult porcine photoreceptors were prepared as described (See Traverso et al., (2003) Investig. Ophthalmol. Vis. Sci. 44, 4550-4558). For newborn rat retinal cultures, rat pups were anesthetized and decapitated, the retinas dissected into CO2-independent Dulbecco's modified Eagle's medium and chopped into small fragments. The fragments were washed twice in Ca/Mg-free PBS and then digested in PBS containing 0.1% papain for 25 min at 37° C. Tissue was dissociated by repeated passage through flame polished Pasteur pipettes, then seeded into tissue culture plates precoated with laminin, in Neurobasal A medium (Invitrogen) containing 2% FBS. After 48 h, medium was changed to a chemically defined formula (Neurobasal A supplemented with B27) for a further 48 h, and then treated.\nExperimental Treatments and Immunochemistry. […] RA was added to test wells (1, 5, 10, 20, and 40 μM, stock solution prepared in Me2SO, 10 μl/well).\nas §1"}, "[5]": {"tested_on": "mouse Nrl promoter", "experiment": "Nrl promoter-luciferase assay in serum-deprived Y79 cells", "type": "cell-based, human", "details": "pGL3-NI and pGL3-Nm constructs (with putative RAREs), 10 μM RA, 24 h", "from_the_text": "(§2) Plasmid Constructs. DNA fragments of 2.5 kb (Nl), 1.2 kb (Nm), and 200 by (Ns) from the 5′-flanking region of the mouse Nrl promoter (GENBANK: AY526079; (See Akimoto et al., (2006) Proc. Natl. Acad. Sci. U.S.A. 103, 3890-3895) were amplified and cloned into pGL3-basic vector (Promega, Madison, Wis.) in-frame with the luciferase reporter gene. The following site-directed mutants of the Nrl promoter were generated from pGL3-Nl using the QUICKCHANGE site-directed mutagenesis kit (Stratagene, La Jolla, Calif.) and sequence-verified: pGL3-Nl-mutIII-1, pGL3-Nl-mutIII-2, and pGL3-Nl-mutII-1, containing deletion of the putative RAREs at positions −781 to −767, −709 to −700, and −453 to −443, respectively.\nTransient Transfection and Luciferase Assay. Transient transfection of Y79 cells was performed using FUGENE 6 reagent (Roche Diagnostics, Indianapolis, Ind.). Prior to transfection, cells were serum-starved 24 h in OPTI-MEM (Invitrogen), diluted to 1.5×10^5 cells in 250 μl and seeded into 24-well plates. Transfection was performed with 0.5 μg of promoter-luciferase construct and 1.5 μl of FUGENE 6. […] Luciferase activity was measured using the Luciferase Assay System (Promega, Madison, Wis.). Experiments were repeated at least three times, and the luciferase activity was calculated as a fold change from the base line luciferase activity obtained in the presence of vector only."}, "[6]": {"tested_on": "mouse Nrl promoter", "experiment": "Nrl promoter-luciferase assay in HEK293 cells", "type": "cell-based", "details": "dose-dependent response", "from_the_text": "as §2\nTransient transfection of HEK293 (ATCC CRL-1573) cells was performed using LIPOFECTAMINE (Invitrogen) according to the manufacturer's instructions. The wild type and mutant Nrl promoter-luciferase constructs, and pCMV-β-gal were added to the cells at a concentration of 0.1 μg and 0.05 μg, respectively. After 3 h, 100 μl of Dulbecco's modified Eagle's medium with 0 or 500 nM at RA was added to each well. Cells were harvested after 24 h in 100 μl of GLO lysis buffer (Promega), and luciferase activity was measured."}, "[7]": {"tested_on": "NRL", "experiment": "NRL expression in adult pig photoreceptor cultures (immunoblot, immunocytochemistry)", "details": "24 h"}, "[8]": {"tested_on": "CEP290", "details": "previous studies; cited from earlier work"}, "[9]": {"tested_on": "chondroitin sulfate proteoglycans (CSPG)", "experiment": "CS-56 staining of glial scar after subretinal injection with or without ChABC", "type": "in vivo, mouse", "details": "ChABC 0.025 U/μl, 1 μl subretinal, MNU-treated mice", "protocol": "Transplantation Procedure. One μl of dissociated Nrl-GFP+ photoreceptor cell suspension (1.0×10^5 cells/μl each) without or with chondroitinase ABC (ChABC) (0.025 U/μl, Wako, Tokyo, Japan) (Nrl group, Nrl/ChABC group, respectively) or 1 μl of PBS (sham group) was drawn into a tapered glass pipette connected to a modified tube and injected through the sclera into the subretinal space. The procedure was performed under surgical microscope.\nImmunofluorescence. Sections were washed in PBS, preincubated with a blocking solution (containing 20% skim milk and 0.3% Triton X-100 in PBS) for 30 minutes, and then incubated overnight at 4° C. with primary antibodies diluted in a blocking solution (containing 5% skim milk and 0.3% Triton X-100 in PBS). The primary antibodies and working dilutions were as follows: mouse and rabbit anti-GFP (1:500, Molecular Probes, Eugene, Oreg.), mouse monoclonal CS-56 IgM antibody (1:200, Sigma) that reacts specifically with chondroitin sulfate containing proteoglycans, and anti-vesicular glutamate transporter 1 (VGluT1; 1:100, Chemicon, Hampshire, UK), a marker for active presynaptic formation (See, e.g., Fujiyama et al., J Comp Neurol. 2003; 465:234-249). Sections were incubated for 90 minutes with secondary antibodies diluted 1:500 in PBS containing 5% skim milk and 0.3% Triton X-100. […]"}}, "note": "Entries after “also recorded” stand apart in the source; their conditions may differ."}
{"compound": "CN(N=O)C(N)=O", "note": "[MNU, N-methyl-N-nitrosourea]", "values": [{"measurement": "dark-adapted ERG response", "setting": "[1]; 1 week after single i.p. MNU 60 mg/kg", "result": "does not detect a response; also recorded: no responses were detectable"}, {"measurement": "state of outer nuclear layer / photoreceptor layer", "setting": "[1]; 1 week after single i.p. MNU 60 mg/kg, VGluT1 and Cytox blue staining", "result": "completely destroyed; also recorded: essentially destroyed"}, {"measurement": "TUNEL labeling of retina", "setting": "[1]; 2 days after single i.p. MNU 60 mg/kg", "result": "nuclear labeling in the majority of the photoreceptor cells"}, {"measurement": "time to apoptosis in all photoreceptors after injection", "setting": "[2]", "result": "≤ 1", "unit": "week"}]}
{"compound": "CC1=C(/C=C/C(C)=C/C=C/C(C)=C/C(=O)O)C(C)(C)CCC1", "note": "[at RA]", "values": [{"measurement": "incubation time after which an increase in NRL protein was observed", "setting": "[3]", "result": 8, "unit": "h"}, {"measurement": "toxicity in culture", "setting": "[4]; doses above 5-20 μM (40 μM RA), newborn rat retina cells", "result": "some toxicity; also recorded: toxic for cell survival"}, {"measurement": "RA concentration giving maximal effects on NRL expression", "setting": "[4]; newborn rat retinal cultures, 24 h", "result": "5 to 20", "unit": "µM"}, {"measurement": "increase in luciferase activity", "setting": "[5]", "result": "> 2", "unit": "fold"}, {"measurement": "at RA concentration of maximum effect on pGL3-Nl luciferase activity", "setting": "[6]", "result": 500, "unit": "nM"}, {"measurement": "RA concentration giving maximal effects on NRL expression", "setting": "[7]", "result": "5 to 20", "unit": "µM"}]}
{"compound": "COC(=O)Nc1nc2ccc(C(=O)c3cccs3)cc2[nH]1", "note": "[nocodazole]", "values": [{"measurement": "centrosomal localization of CEP290 after microtubule depolymerization", "setting": "[8]", "result": "does not alter centrosomal localization of CEP290"}]}
{"compound": "chondroitinase ABC [ChABC]", "values": [{"measurement": "degradation of CSPG in the ECM of the glial scar at the injection site (CS-56 staining)", "setting": "[9]", "result": "substantially, if not completely, degraded"}]}
